Reference: paper PMC10821532, “Sex and Cross-Sex Testosterone Treatment Alters Gamma-Hydroxybutyrate Acid Toxicokinetics and Toxicodynamics in Rats” (Pharmaceutics, 2024)

System: Sprague Dawley (SD) rats
Assay: Sedative/hypnotic effect (sleep time, RRR-LRR) after i.v. GHB
Type: in vivo
Settings: 1500 mg/kg GHB iv
Procedure: Jugular vein cannulas were surgically implanted under anesthesia with ketamine/xylazine. Cannulas were flushed daily with heparinized saline to maintain patency. Rats were allowed a minimum of 72 h for recovery from surgery before the experiments were conducted. GHB was administered intravenously as a 1000 mg/kg i.v. bolus or 1500 mg/kg iv bolus with or without AR-C155858 (1 mg/kg i.v. bolus) via a jugular vein cannula to the animals at 13 weeks of age (N = 5–7 per group). Rats were dosed in metabolic cages with ad libitum access to water to allow for the concurrent collection of blood and urine samples for up to 8 h. GHB was administered as a 300 mg/mL solution in sterile water, and the time of administration was considered as time 0. AR-C155858 was administered as a 1 mg/mL solution in 10% cyclodextrin in normal saline 5 min after GHB administration. Blood samples (200 μL) were taken from the jugular vein cannula at different time points: 5, 10, 20, 30, 60, 90, 120, 180, 240, 270, 300, and 330 min for 1000 mg/kg and 10, 30, 60, 90, 120, 180, 240, 270, 300, 330, 360, and 390/480 min for 1500 mg/kg bolus with or without AR-C155858. Plasma samples were separated by centrifugation and stored at −20 °C. Urine samples were collected at 120, 240, and 360 min for 1000 mg/kg and 120, 240, and 390/480 min for 1500 mg/kg bolus with or without AR-C155858 post-dose; the total urine volume was determined, and the samples were stored at −20 °C.
The sedative/hypnotic effects (sleep time) were determined, as described in a previous publication. The sedative/hypnotic duration effect of GHB was determined as the difference between the offset of the sedative/hypnotic effect (RRR) and the onset of the sedative/hypnotic effect (LRR).

## O=C(O)CCCO [GHB, Γ-hydroxybutyric acid]
testosterone-treated CST rats
  Sleep time (RRR–LRR), average: 422.5 min
Two of the testosterone-treated CST rats
  Sleep time, two individual rats: ~ 600 min
